One assay has as its target T1, PTP99A D2 (Drosophila melanogaster, UniProt P35832).
T1 sequence (P35832 740-1050): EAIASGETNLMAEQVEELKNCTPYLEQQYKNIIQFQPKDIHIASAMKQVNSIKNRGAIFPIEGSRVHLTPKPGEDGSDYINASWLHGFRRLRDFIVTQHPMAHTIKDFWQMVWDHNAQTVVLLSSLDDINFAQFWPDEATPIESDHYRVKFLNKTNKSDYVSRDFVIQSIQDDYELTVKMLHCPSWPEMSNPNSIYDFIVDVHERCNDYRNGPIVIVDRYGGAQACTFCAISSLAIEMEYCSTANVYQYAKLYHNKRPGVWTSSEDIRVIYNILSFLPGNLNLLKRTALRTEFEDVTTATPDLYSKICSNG
Kind of assay: Phosphatase assay using pNPP, PTP99A D2. Format: biochemical. The following applies: CGH buffer pH 6.5. As for the experimental part:
(§1) Phosphatase activity of the recombinant PTP domains was determined by using para-Nitrophenylphosphate (pNPP), a small molecule generic substrate, as well as phosphotyrosine containing peptides. The pNPP assay was performed as reported previously, with a modification in the buffer composition (25 mM Citrate, Glycine and HEPES (CGH), pH 6.5, 100 mM NaCl and 2 mM DTT). Phosphatase activity with the phosphotyrosine peptides was ascertained by the malachite green reaction as described for PTPs previously. Briefly, the reaction mixture comprised of 0.01 µM protein incubated with increasing concentrations of different peptides in 25 mM citrate buffer pH 6.0, 100 mM NaCl and 2 mM DTT for 15 min at 25°C. The reaction was stopped by the addition of the Biomol Green reagent (Enzo Life Sciences) and the colour developed after 20 min was quantified at 650 nm. For all the assays, kinetic constants for the steady state catalysis were obtained by fitting the reaction curves to the Michaelis-Menten equation using the nonlinear regression module of Sigma plot software (Systat Software, Inc.).

A further assay addresses T2, PTP99A D1D2 (Drosophila melanogaster, UniProt P35832).
T2 sequence (P35832 450-1050): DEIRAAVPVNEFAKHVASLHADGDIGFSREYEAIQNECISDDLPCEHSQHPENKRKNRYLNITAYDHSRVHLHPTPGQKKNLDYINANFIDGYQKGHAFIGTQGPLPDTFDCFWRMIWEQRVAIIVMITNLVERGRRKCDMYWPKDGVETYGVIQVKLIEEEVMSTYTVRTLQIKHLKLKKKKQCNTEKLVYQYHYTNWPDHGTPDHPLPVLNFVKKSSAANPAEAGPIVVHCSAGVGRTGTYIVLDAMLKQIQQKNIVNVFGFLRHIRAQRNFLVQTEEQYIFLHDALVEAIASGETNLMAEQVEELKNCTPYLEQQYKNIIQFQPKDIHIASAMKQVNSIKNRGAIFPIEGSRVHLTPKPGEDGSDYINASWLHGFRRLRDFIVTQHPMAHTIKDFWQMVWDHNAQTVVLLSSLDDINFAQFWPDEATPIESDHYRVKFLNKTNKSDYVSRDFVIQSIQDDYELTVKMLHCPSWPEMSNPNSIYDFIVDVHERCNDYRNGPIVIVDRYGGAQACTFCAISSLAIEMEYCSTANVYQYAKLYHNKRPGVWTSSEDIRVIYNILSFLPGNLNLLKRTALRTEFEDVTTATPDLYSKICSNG
Kind of assay: Phosphatase assay using pNPP, PTP99A D1D2. The format is biochemical. Also on record: PTP99A 450-1050; His tag (pET-15b or pET-22b); made in house; host or cells: E. coli BL21(DE3). To be noted: CGH buffer pH 6.5, 100 mM NaCl, 2 mM DTT. As for the experimental part: as §1
The tandem PTP domains of PTP99A (PTP99A D1D2) and DLAR (DLAR D1D2) , the individual PTP domains (D1 and D2) as well as the active site mutants were expressed in E. coli and were purified using the protocols described earlier (Figure 1a, Figure S1a, b & c). The biochemical characterization and catalytic activity measurements were performed using pNPP as a substrate. […] Thus the D2 domain appears to have a regulatory role in both RPTPs- decreasing the catalytic activity in the case of DLAR while increasing the catalytic activity in the case of PTP99A (Figure 1b).

The subject of assay [1] is DLAR D1 active site cysteine to serine mutant. Kind of assay: Phosphatase assay using pNPP, DLAR D1 active site Cys to Ser mutant. Format: biochemical, Drosophila melanogaster. The following applies: active site cysteine to serine in D1. From the text:
Cosmids containing the genes encoding RPTPs DLAR and PTP99A were a kind gift from Prof. Kai Zinn (Caltech). The PTP domains of PTP99A and DLAR were PCR amplified and ligated between the NheI and XhoI restriction sites of the bacterial expression vectors pET-15b and pET-22b. The active site mutants (with the nucleophilic cysteines in the PTP domains of DLAR and PTP99A mutated to serines) were obtained by using a single primer approach. An XbaI site was incorporated in the primers to aid screening of mutants. All clones were confirmed by sequencing (Macrogen Inc.). The details of the expression constructs are compiled in Table S1 and Figure 1a.
Phosphatase activity of the recombinant PTP domains was determined by using para-Nitrophenylphosphate (pNPP), a small molecule generic substrate, as well as phosphotyrosine containing peptides. The pNPP assay was performed as reported previously, with a modification in the buffer composition (25 mM Citrate, Glycine and HEPES (CGH), pH 6.5, 100 mM NaCl and 2 mM DTT). Phosphatase activity with the phosphotyrosine peptides was ascertained by the malachite green reaction as described for PTPs previously. […] The reaction was stopped by the addition of the Biomol Green reagent (Enzo Life Sciences) and the colour developed after 20 min was quantified at 650 nm. […]

The subject of assay [2] is D958C mutant of the D2 domain of PTP99A. The assay can be described thus: Phosphatase assay using pNPP, PTP99A D2 D958C mutant. The format is biochemical, Drosophila melanogaster. To be noted: D958C point mutant. As for the experimental part: as §1
Supplementary file pone.0024766.s005.tif: Figure S5 Characterization of the D958C mutant of the D2 domain of PTP99A. A: Size exclusion profile of wild-type and D958C mutant of the D2 domain of PTP99A. B: Circular Dichroism (CD) spectra of the wild type and D958C mutant. […]

Several values for one entry are separate records, joined by “and”; a condition that tells them apart may be missing. Equal values may be shown once.

In general, Vmax refers to the top rate of the reaction or transport when substrate is in excess.

`O=[N+]([O-])c1ccc(OP(=O)(O)O)cc1` [pNPP, para-Nitrophenylphosphate]: the PTPase activity entry at PTP99A D2 is given as “no detectable activity”. Besides, at PTP99A D1D2, the Kcat is 33.80 ± 0.59 s⁻¹ and the Kcat/Km is given as 14.92 ± 0.98 x 10^3 sec^-1M^-1. In addition, the Vmax at PTP99A D1D2 (Michaelis-Menten fit) was 24.89 µmol/min/mg and 24.89 ± 0.52 µmol/min/mg. Also, the PTPase activity entry in assay [1] is “inactive enzyme”. For the same molecule, the phosphatase activity result in assay [2] is “catalytically inactive”.

The values above are taken from PMC3172300, “Modulation of Catalytic Activity in Multi-Domain Protein Tyrosine Phosphatases” (PLoS ONE, 2011).
